How the values were obtained:
Type in all cases: functional
SNB-75 [1] = assay: Cytotoxicity against human SNB75 cells assessed as cell growth at 0.01 uM after 48 hrs by sulforhodamine B assay relative to control; conditions: SNB-75, 48 h, read-out: Activity
SK-MEL-2 [2] = assay: Cytotoxicity against human SK-MEL-2 cells assessed as cell growth at 0.1 uM after 48 hrs by sulforhodamine B assay relative to control; conditions: SK-MEL-2, 48 h, read-out: Activity
HOP-92 [3] = assay: Cytotoxicity against human HOP92 cells assessed as cell growth at 100 uM after 48 hrs by sulforhodamine B assay relative to control; conditions: HOP-92, 48 h, read-out: Activity
SK-MEL-2 [4] = assay: Cytotoxicity against human SK-MEL-2 cells assessed as cell growth at 100 uM after 48 hrs by sulforhodamine B assay relative to control; conditions: SK-MEL-2, 48 h, read-out: Activity
HOP-92 [5] = assay: Cytotoxicity against human HOP92 cells assessed as cell growth at 0.01 uM after 48 hrs by sulforhodamine B assay relative to control; conditions: HOP-92, 48 h, read-out: Activity
LOX IMVI [6] = assay: Cytotoxicity against human LOXIMVI cells assessed as cell growth at 0.1 uM after 48 hrs by sulforhodamine B assay relative to control; conditions: read-out: Activity
LOX IMVI [7] = assay: Cytotoxicity against human LOXIMVI cells assessed as cell growth at 100 uM after 48 hrs by sulforhodamine B assay relative to control; conditions: read-out: Activity
SK-MEL-2 [8] = assay: Cytotoxicity against human SK-MEL-2 cells assessed as cell growth at 10 uM after 48 hrs by sulforhodamine B assay relative to control; conditions: SK-MEL-2, 48 h, read-out: Activity
SNB-75 [9] = assay: Cytotoxicity against human SNB75 cells assessed as cell growth at 10 uM after 48 hrs by sulforhodamine B assay relative to control; conditions: SNB-75, 48 h, read-out: Activity
SNB-75 [10] = assay: Cytotoxicity against human SNB75 cells assessed as cell growth at 1 uM after 48 hrs by sulforhodamine B assay relative to control; conditions: SNB-75, 48 h, read-out: Activity
SF-295 [11] = assay: Cytotoxicity against human SF295 cells assessed as cell growth at 100 uM after 48 hrs by sulforhodamine B assay relative to control; conditions: SF-295, 48 h, read-out: Activity
SK-OV-3 = assay: Cytotoxicity against human SKOV3 cells assessed as cell growth at 100 uM after 48 hrs by sulforhodamine B assay relative to control; conditions: SK-OV-3, 48 h, read-out: Activity
SF-295 [12] = assay: Cytotoxicity against human SF295 cells assessed as cell growth at 0.1 uM after 48 hrs by sulforhodamine B assay relative to control; conditions: SF-295, 48 h, read-out: Activity
SK-MEL-2 [13] = assay: Cytotoxicity against human SK-MEL-2 cells assessed as cell growth at 1 uM after 48 hrs by sulforhodamine B assay relative to control; conditions: SK-MEL-2, 48 h, read-out: Activity
SNB-75 [14] = assay: Cytotoxicity against human SNB75 cells assessed as cell growth at 100 uM after 48 hrs by sulforhodamine B assay relative to control; conditions: SNB-75, 48 h, read-out: Activity
LOX IMVI [15] = assay: Cytotoxicity against human LOXIMVI cells assessed as cell growth at 0.01 uM after 48 hrs by sulforhodamine B assay relative to control; conditions: read-out: Activity
SNB-75 [16] = assay: Cytotoxicity against human SNB75 cells assessed as cell growth at 0.1 uM after 48 hrs by sulforhodamine B assay relative to control; conditions: SNB-75, 48 h, read-out: Activity
HOP-92 [17] = assay: Cytotoxicity against human HOP92 cells assessed as growth inhibition after 48 hrs by sulforhodamine B assay; conditions: HOP-92, 48 h; for CC50: read-out: LC50 (the source's name)
SF-295 [18] = assay: Cytotoxicity against human SF295 cells assessed as growth inhibition after 48 hrs by sulforhodamine B assay; conditions: SF-295, 48 h
SF-295 [19] = assay: Cytotoxicity against human SF295 cells assessed as cell growth at 0.01 uM after 48 hrs by sulforhodamine B assay relative to control; conditions: SF-295, 48 h, read-out: Activity
LOX IMVI [20] = assay: Cytotoxicity against human LOXIMVI cells assessed as cell growth at 1 uM after 48 hrs by sulforhodamine B assay relative to control; conditions: read-out: Activity
SF-295 [21] = assay: Cytotoxicity against human SF295 cells assessed as cell growth at 1 uM after 48 hrs by sulforhodamine B assay relative to control; conditions: SF-295, 48 h, read-out: Activity
HOP-92 [22] = assay: Cytotoxicity against human HOP92 cells assessed as cell growth at 0.1 uM after 48 hrs by sulforhodamine B assay relative to control; conditions: HOP-92, 48 h, read-out: Activity
LOX IMVI [23] = assay: Cytotoxicity against human LOXIMVI cells assessed as cell growth at 10 uM after 48 hrs by sulforhodamine B assay relative to control; conditions: read-out: Activity
SK-MEL-2 [24] = assay: Cytotoxicity against human SK-MEL-2 cells assessed as cell growth at 0.01 uM after 48 hrs by sulforhodamine B assay relative to control; conditions: SK-MEL-2, 48 h, read-out: Activity
HOP-92 [25] = assay: Cytotoxicity against human HOP92 cells assessed as cell growth at 10 uM after 48 hrs by sulforhodamine B assay relative to control; conditions: HOP-92, 48 h, read-out: Activity
SNB-75 [26] = assay: Cytotoxicity against human SNB75 cells assessed as growth inhibition after 48 hrs by sulforhodamine B assay; conditions: SNB-75, 48 h
SF-295 [27] = assay: Cytotoxicity against human SF295 cells assessed as cell growth at 10 uM after 48 hrs by sulforhodamine B assay relative to control; conditions: SF-295, 48 h, read-out: Activity
HOP-92 [28] = assay: Cytotoxicity against human HOP92 cells assessed as cell growth at 1 uM after 48 hrs by sulforhodamine B assay relative to control; conditions: HOP-92, 48 h, read-out: Activity
CAKI-1 [29] = assay: Cytotoxicity against human Caki1 cells assessed as cell growth at 0.01 uM after 48 hrs by sulforhodamine B assay relative to control; conditions: CAKI-1, 48 h, read-out: Activity
CAKI-1 [30] = assay: Cytotoxicity against human Caki1 cells assessed as growth inhibition after 48 hrs by sulforhodamine B assay; conditions: CAKI-1, 48 h
CAKI-1 [31] = assay: Cytotoxicity against human Caki1 cells assessed as cell growth at 10 uM after 48 hrs by sulforhodamine B assay relative to control; conditions: CAKI-1, 48 h, read-out: Activity
CAKI-1 [32] = assay: Cytotoxicity against human Caki1 cells assessed as cell growth at 100 uM after 48 hrs by sulforhodamine B assay relative to control; conditions: CAKI-1, 48 h, read-out: Activity
CAKI-1 [33] = assay: Cytotoxicity against human Caki1 cells assessed as cell growth at 1 uM after 48 hrs by sulforhodamine B assay relative to control; conditions: CAKI-1, 48 h, read-out: Activity
CAKI-1 [34] = assay: Cytotoxicity against human Caki1 cells assessed as cell growth at 0.1 uM after 48 hrs by sulforhodamine B assay relative to control; conditions: CAKI-1, 48 h, read-out: Activity

Structure (SMILES)	growth at 0.01 µM (SNB-75 [1]) [%]	growth at 0.1 µM (SK-MEL-2 [2]) [%]	growth at 100 µM (HOP-92 [3]) [%]	growth at 100 µM (SK-MEL-2 [4]) [%]	growth at 0.01 µM (HOP-92 [5]) [%]	growth at 0.1 µM (LOX IMVI [6]) [%]	growth at 100 µM (LOX IMVI [7]) [%]	growth at 10 µM (SK-MEL-2 [8]) [%]	growth at 10 µM (SNB-75 [9]) [%]	growth at 1 µM (SNB-75 [10]) [%]	growth at 100 µM (SF-295 [11]) [%]	growth at 100 µM (SK-OV-3) [%]	growth at 0.1 µM (SF-295 [12]) [%]	growth at 1 µM (SK-MEL-2 [13]) [%]	growth at 100 µM (SNB-75 [14]) [%]	growth at 0.01 µM (LOX IMVI [15]) [%]	growth at 0.1 µM (SNB-75 [16]) [%]	TGI (HOP-92 [17]) [µM]	CC50 (HOP-92 [17]) [µM]	TGI (SF-295 [18]) [µM]	further results
COc1ccc(-c2cc(/C=C/C(=O)c3ccc(N)cc3)[nH]n2)cc1OC	81	109	-81	-86	86	102	-81	46	17	75	-91	-99	90	102	-97	100	92	30.9	63.9	15.2	GI50 (HOP-92 [17]): 1.49 µM; GI50 (SF-295 [18]): 3.58 µM; LC50 (SF-295 [18]): 42.9 µM; growth at 0.01 µM (SF-295 [19]): 83%; growth at 1 µM (LOX IMVI [20]): 96%; growth at 1 µM (SF-295 [21]): 87%; growth at 0.1 µM (HOP-92 [22]): 87%; growth at 10 µM (LOX IMVI [23]): -66%; growth at 0.01 µM (SK-MEL-2 [24]): 103%; growth at 10 µM (HOP-92 [25]): 77%; GI50 (SNB-75 [26]): 2.74 µM; LC50 (concentration killing 50% of cells) (SNB-75 [26]): 39 µM; TGI (SNB-75 [26]): 14.2 µM; growth at 10 µM (SF-295 [27]): 20%; growth at 1 µM (HOP-92 [28]): 87%
COc1ccc(-c2cc(/C=C/C(=O)c3cc(OC)c(OC)c(OC)c3)[nH]n2)cc1OC	88	95	-84	-92	103	94	-69	-12	-46	63	-91	-95	87	97	-82	96	77	5.48	26.6	4.26	GI50 (HOP-92 [17]): 1.61 µM; GI50 (SF-295 [18]): 1.67 µM; LC50 (SF-295 [18]): 12.5 µM; growth at 0.01 µM (SF-295 [19]): 97%; growth at 1 µM (LOX IMVI [20]): 78%; growth at 1 µM (SF-295 [21]): 77%; growth at 0.1 µM (HOP-92 [22]): 74%; growth at 10 µM (LOX IMVI [23]): -91%; growth at 0.01 µM (SK-MEL-2 [24]): 100%; growth at 10 µM (HOP-92 [25]): -25%; GI50 (SNB-75 [26]): 1.31 µM; LC50 (concentration killing 50% of cells) (SNB-75 [26]): 12.7 µM; TGI (SNB-75 [26]): 3.77 µM; growth at 10 µM (SF-295 [27]): -46%; growth at 1 µM (HOP-92 [28]): 70%
COc1ccc(C(=O)/C=C/c2cc(-c3ccc(OC)c(OC)c3)n[nH]2)cc1OC	82	113	-15	-58	83	99	-91	-44	-65	58	-57	-8	90	111	-82	100	89	8.12	> 100	5.05	GI50 (HOP-92 [17]): 1.97 µM; GI50 (SF-295 [18]): 1.6 µM; growth at 0.01 µM (SF-295 [19]): 85%; growth at 1 µM (LOX IMVI [20]): 68%; growth at 1 µM (SF-295 [21]): 70%; growth at 0.1 µM (HOP-92 [22]): 81%; growth at 10 µM (LOX IMVI [23]): -89%; growth at 0.01 µM (SK-MEL-2 [24]): 110%; growth at 10 µM (HOP-92 [25]): -7%; GI50 (SNB-75 [26]): 1.16 µM; TGI (SNB-75 [26]): 2.96 µM; growth at 10 µM (SF-295 [27]): -30%; growth at 1 µM (HOP-92 [28]): 74%
COc1ccc(C(=O)/C=C/c2cc(-c3ccc4c(c3)OCO4)n[nH]2)cc1OC	78	95	-61	-68	85	99	-78	39	-10	76	-93	-23	98	107	-100	100	76	8.11	62.2	6.15	growth at 0.01 µM (CAKI-1 [29]): 93%; LC50 (CAKI-1 [30]): 9.84 µM; TGI (CAKI-1 [30]): 4.33 µM; growth at 10 µM (CAKI-1 [31]): -51%; growth at 100 µM (CAKI-1 [32]): -65%; LC50 (SF-295 [18]): 22.2 µM; growth at 0.01 µM (SF-295 [19]): 95%; growth at 1 µM (LOX IMVI [20]): 97%; growth at 1 µM (SF-295 [21]): 101%; growth at 0.1 µM (HOP-92 [22]): 87%; growth at 10 µM (LOX IMVI [23]): -62%; growth at 0.01 µM (SK-MEL-2 [24]): 98%; growth at 10 µM (HOP-92 [25]): -8%; LC50 (concentration killing 50% of cells) (SNB-75 [26]): 27.7 µM; TGI (SNB-75 [26]): 7.57 µM; growth at 10 µM (SF-295 [27]): -27%; growth at 1 µM (HOP-92 [28]): 79%; growth at 1 µM (CAKI-1 [33]): 89%; growth at 0.1 µM (CAKI-1 [34]): 100%

Reference: ChEMBL document CHEMBL4138123, “Design, synthesis and biological evaluation of novel pyrazolochalcones as potential modulators of PI3K/Akt/mTOR pathway and inducers of apoptosis in breast cancer cells” (Eur J Med Chem, 2017)
